Results on four compounds are retold here after patent US8598225B2, “Use of L-butylphthalide in the manufacture of medicaments for treatment of cerebral infarct” (CSPC Zhongqi Pharmaceutical Technology (Shijiazhuang) Co., …, priority 2003, dated 2013).

Data set [1] relates to transient focal cerebral ischemic model (tMCAO). The data set can be described thus: Cerebral infarct volume of tMCAO rats (2 h middle cerebral artery occlusion, 24 h reperfusion, TTC staining). In kind it is in vivo, rat. Conditions: 15 min after ischemia; for effect on infarct volume (in words): oral, l-NBP and d-NBP 20 and 40 mg/kg, dl-NBP 40 and 80 mg/kg, vs. vehicle; for reduction of infarct volume vs. vehicle group: tMCAO rats, p<0.001.

The test system of data set [2] is acute ischemic cerebral stroke. Conditions: administration group; 192 cases multi centered, random, double blinded, placebo control (placebo 41.0%); cited from earlier work.
The test system of data set [3] is transient focal cerebral ischemic model (tMCAO). The data set can be described thus: Neurological behavioral evaluation of tMCAO rats (score 0-4). The conditions noted are these: for improvement of neurological symptoms (in words): oral, d-NBP 20 and 40 mg/kg, dl-NBP 40 and 80 mg/kg, vs. vehicle; for mean neurological score: 15 min after ischemia, scored at 24 h, vehicle 2.6±0.3.
Experimental: Male Wistar rats weighed 280-320 g were used, with each 5 rats kept in one cage. Animals were allowed free access to food and water at room temperature controlled at 23° C. The rats were anesthetized with 40 mg/kg of sodium pentobarbital. Under the surgical microscope, a midline neck skin incision was make to expose the right common cartotid artery, and the internal carotid artery (ICA) and external carotid artery (ECA) were then separated free from surrounding nerves and fascia, and the anastomotic branch was ligated. The ECA were ligated and cut, pulled to be straight and in line with ICA. A nylon suture with rounded tip and the diameter of 0.28 mm (coated with poly-L-lysine) was introduced from ECA into the lumen of the ICA for about 20 mm, advancing endocranially to the starting point of middle cerebral artery.
After 2 h of ischemia, the nylon suture was carefully withdrawn, and the ECA was ligated at the site of opening. The rats were then sutured and placed back into the cage, and allowed to reperfuse for 24 h. Room temperature throughout the operation was kept at 24-25° C. The rats were placed on the heating plate of 37° C. to maintain the body temperature throughout the operation. The administration was performed 15 minutes after ischemia.
Rats were divided into eight groups with 10 rats in each group. Group 1 was vehicle control with 1 ml/kg of vegetable oil; groups 2) and 3) were 40 and 80 mg/kg of dl-NBP; groups 4) and 5) were 20 and 40 mg/kg of d-NBP; groups 6) and 7) were 20 and 40 mg/kg of l-NBP; and group 8 was 0.1 mg/kg of MK801. Animals in groups 1-7 were orally administered, and animals in group 8 were intraperitoneally administered.
Neurological behavioral observation was conducted after 24 h of ischemia. Rats were lifted up by tail 1 inch away from the ground, and the conditions of both forelimbs were observed; both shoulders were pushed to observe if there was any difference between the resistances by both sides; the rats were placed down to the ground and their walking conditions were observed. Scores were given in accordance with the following criteria. • 0: strong forelimbs, symmetrically stretching towards the ground; identical resistance of both shoulders, and normal walk. • 1: contralateral shoulder flexion, forelimb flexion; identical resistance of both shoulders, and normal walk. • 2: contralateral shoulder flexion, forelimb flexion; decreased resistance of contralateral shoulder to push; and normal walk. • 3: contralateral shoulder flexion, forelimb flexion; decreased resistance of contralateral shoulder to push; and circling when walking • 4: contralateral shoulder flexion, forelimb flexion; and unable to autonomously move. The higher the score is, the more severe the behavioral disorder of the animal is.
The results were expressed as mean±standard error. Neurological behavioral score and cerebral infarct volume were statistically analyzed using one-way ANOVA and the difference between groups using posthoc LSD test. Result was considered to show a significant difference when p<0.05.

For data set [4], the system named is micro-circulation. The conditions noted are these: previous studies; cited from earlier work.

Each structure is given as a SMILES string. Entries after “also recorded” stand apart in the source; their conditions may differ.

In the case of `CCCCC1OC(=O)c2ccccc21` (racemic) [dl-NBP, racemic butylphthalide], the “effect on infarct volume (in words)” value in data set [1] is listed as “no significant effect; also recorded: no reduction effect”. For the same compound, the total effective rate in data set [2] is 70.7%. Also, the “improvement of neurological symptoms (in words)” value in data set [3] was “no significant improvement”.
With `C[C@]12N[C@H](Cc3ccccc31)c1ccccc12` [MK801], in data set [1] (0.1 mg/kg intraperitoneal), the “reduction of infarct volume vs. vehicle group” value was 81.8%. Besides, the mean neurological score in data set [3] (0.1 mg/kg intraperitoneal, p<0.001) is listed as 0.8. For the same compound, the “adverse behavioral signs in treated animals” value in data set [3] (0.1 mg/kg intraperitoneal, tMCAO rats) is “the limbs were weak, and staggered when sprawling, ataxia occurred, and unilaterally circled”.
As to `CCCC[C@H]1OC(=O)c2ccccc21` [d-NBP, dextro-butylphthalide], the “effect on infarct volume (in words)” value in data set [1] is “no significant effect”. Besides, in data set [4], the “cerebral protective and micro-circulation improving effect (in words)” value is given as “no such effect”. In addition, the “improvement of neurological symptoms (in words)” value in data set [3] is recorded as “no significant improvement”.
As for `CCCC[C@@H]1OC(=O)c2ccccc21` [l-NBP, L-n-butylphthalide], the “reduction of infarct volume vs. vehicle group” value in data set [1] (40 mg/kg oral, 24 h reperfusion) was found to be 80.4%. The “effect on infarct volume (in words)” value in data set [1] was “significantly reduced dose-dependently; also recorded: very significantly and dose dependently reduced”. Besides, in data set [4], the “cerebral protective and micro-circulation improving effect (in words)” value is “also has cerebral protective effect and micro-circulation improving effect”. Moreover, the mean neurological score in data set [3] (20 mg/kg oral, p<0.01) is on record as 1.4; in data set [3] (40 mg/kg oral, p<0.001), 1.1.
